Data: patent US12234228B2, “Nitric oxide donor and anti-oxidant compounds” (University of North Texas Health Science Center, priority 2018, dated 2025)
Entries after “also recorded” stand apart in the source; their conditions may differ.

How the values were obtained:
[1] = pyrogallol induced ROS (superoxide) scavenging assay; assay type: biochemical; conditions: Concentration 250 μM; Time 0.5 h
[2] = system: HUVEC; experiment: HUVEC viability / cytoprotection under H2O2 induced oxidative stress (MTT); assay type: cell-based, Human; conditions: for effective range of concentration to protect ECs: ECs under H2O2 stress; for cytoprotective activity: different concentrations
[3] = system: plasminogen activating inhibitor-1 (PAI-1); experiment: DEX induced PAI-1 in human trabecular meshwork cells (western blot); assay type: cell-based; conditions: DEX 100 nM, compound 100 μM, 48 hr, conditioned medium
Description: Briefly, cells were plated at a density of 2×10^5 cells per well and were treated with DEX (100 nM) or vehicle (ethanol) in the presence of 100 μM of SA-1, SA-2, SA-9, SA-10 and PBA (positive control) for 48 hr. Conditioned medium was collected for western blot. Experiments were performed in triplicates.
In vitro plasminogen activating inhibitor-1 (PAI-1) activity. Human primary trabecular meshwork (hTM) cells were plated in 6-well plates at a density of 2×10^5 cells per well and were treated with dexamethasone (DEX, 100 nM) or vehicle (ethanol) in the presence of test compounds (100 μM) for 48 hr. Conditioned medium was collected for Western Blot. Experiments were performed in triplicates […].

[4] = system: mouse hippocampal neural cells (HT-22); experiment: cytotoxicity / proliferation in mouse hippocampal neural cells (HT-22); conditions: for cell proliferation: different doses
[5] = system: human trabecular meshwork cells; experiment: cytoprotection of human trabecular meshwork cells under TBHP induced oxidative stress; assay type: cell-based; conditions: for concentration providing cytoprotection: oxidative stress induced cell death model; for cytoprotective activity: TBHP (300 μM) induced oxidative stress
[6] = system: Nitric oxide synthetase (NOS); experiment: NOS activating activity in HUVEC under H2O2 stress; assay type: cell-based, Human; conditions: for level of NOS: HUVEC treated with H2O2, both doses 0.05 μM and 0.5 μM; for eNOS activity: HUVEC under H2O2 induced oxidative stress
Description: In vitro Nitric oxide synthetase (NOS) activating activity. Human Umbilical Vascular Endothelial Cells (HUVECs) were plated at a density of 2×10^5 cells per well and were treated with or without H2O2 (200 μM) and compounds at different concentrations. NOS knock-down samples (NOSi) were cells exposed to a competitive NOS inhibitor L-NNA at 50 μM. After 24-hour-treatment, total NOS activity from treated cells was quantified using OxiSelect™ Intracellular Nitric Oxide (NO) Assay Kit where NOS activity correlates to fluorescent intensity^5.

[7] = system: primary microglia isolated from rat retina; experiment: TII induced ROS in primary microglia (DCFDA assay); conditions: for TII induced ROS production: 10 μM, 24 h, TII = TNF-α, IL-1β, IFN-γ; for activation of microglia by the compound itself: rat primary microglia, without TII
[8] = system: ROS in HUVEC cells; experiment: ROS scavenging in HUVEC under oxidative stress (DCFDA assay); assay type: cell-based, Human; conditions: H2O2 induced oxidative stress, SA-9 at 0.05 μM
[9] = system: primary microglia isolated from rat retina; experiment: TII induced nitric oxide in primary microglia (Greiss assay); assay type: cell-based; conditions: 10 μM, 24 h
[10] = system: endothelial cells; experiment: transwell chemotaxis EC migration under oxidative stress; assay type: cell-based, Human; conditions: for EC migration (FIG. 6): 0.5 μM, transwell
Description: Cell migration studies. Transwell chemotaxis migration studies were conducted to study effects of SA-2 and SA-10 drugs on the migration of endothelial cells under stress conditions. To this, ECs were seeded at 50,000 cells/cm^2 on upper compartment (low serum media with 200 μM H2O2) and attracted to migrate through 8 μm-pore membrane by chemotaxis (SA compounds dissolved in low serum media with 200 μM H2O2) added in lower compartment. At 12 hours, migrated cells were fixed with 4% paraformaldehyde and stained with crystal violet prior to imaging and counting by Cell counter on ImageJ.

[11] = system: primary microglia isolated from rat retina; experiment: TII induced cell death in primary microglia (LDH assay); assay type: cell-based; conditions: 10 μM, 24 h
[12] = system: HUVEC; experiment: in vitro angiogenesis / tube formation under oxidative stress; assay type: cell-based, Human; conditions: for angiogenesis and new tube formation: HUVEC under oxidative stress (200 μM H2O2); for angiogenesis and new tube formation (FIG. 5): SA-9 0.5 μM, SA-10 0.005 μM, H2O2 200 μM, low serum media
Description: In vitro angiogenesis studies. Cultrex reduced growth factor basement membrane extracted gel (Cat. 3433-005-01, R&D Systems, Inc.) was coated on bottom of μ-Slide angiogenesis wells (Cat. 81506, iBidi GmbH Co.). ECs at early passages (passage 6th or earlier) were then seeded on gel at a seeding density of 25,000 cells/cm^2. Next, cells were treated with treatment groups (SA-2, SA-10, SA-10 NPs, VEGF) under stress condition (200 μM H2O2). After 12 hours of incubation, formation of new microtubes were visualized and captured on phase contrast microscopes. Images were then stacked and processed with Angiogenesis analyzer on ImageJ.

[13] = system: ischemic hindlimb mice; experiment: hind limb ischemia (PAD) model: blood perfusion and treadmill; assay type: in vivo, mouse
Excerpt: Parameters: Incline 30 degrees; max endurance test at […]; stimulation: 1.5 mA. Stimulation and distance count were stopped when a mouse met one of the following conditions: 1) total stimulation time 30 seconds; or 2) single stimulation time is more than 10 seconds.
Animal model. Since PAD happens commonly in old people, the inventor used old mice for ischemic hindlimb animal models. To this, male and female Balb/c mice at age of 30-40 weeks old were chosen for these in vivo studies. Animals were housed in individual cage at normal diet before performing ligation. In brief, animals were anesthetized with 2% isoflurane, and prior to incision, analgesic SR Buprenorphine was injected subcutaneously (at dose of 1 mg/kg for mice). Upon opening the incision on animals left legs, the membrane covering the inguinal fat tissue was carefully separated to expose the neurovascular bundle underneath and veins and nerves were then carefully separated from arteries. Next, three pair of 1 mm-distal ties (using 6-0 or 7-0 nonabsorbable suture) followed by transection (by spring scissor) were made on femoral artery, proximal caudal femoral artery and superficial caudal epigastric artery. Finally, the incision was closed by absorbable 5-0 or 6-0 sutures. The animal model appeared limping similar to literature report^37 from the time post-treatment until endpoint study.
Therapeutic groups of study and sample size. After 3 days of ligation, mice were randomly assigned into 4 groups: Sham, free SA-10, SA-10 NPs and blank PLGA NPs. Sham groups were injected with saline without any therapeutic treatment. Based on study of biodistribution, the route of administration was intramuscular (IM) injection. To determine sample size, a power of analysis was processed on SigmaPlot v.13 software. Significant difference would be considered when P<0.05. Based on the inventor's own experience and literature reports, the inventor selected power with α<0.05 as 0.8. Calculation yielded sample size as n=5.
In vivo blood perfusion and physical test. Animals under treatments were measured for their recovery physiologically and physically. In the former study, animals were anesthetized with 1.5-2% isoflurane, and blood perfusion was measured with Laser Speckle Contrast Imaging (PeriCam PSI NR, Perimed AB). Briefly, hemoglobin in shallow vessels and capillaries responded to exciting lasers in term of color pigments. The relative blood perfusion was calculated by device software (PIMSoft), and it correlated to typical pigments. […]
When the animal was not running for total of 30 seconds under stimulation, the run of animals was terminated from recording. Physical recovery of animals was then quantified as covered distance until exhaustion, which was obtained from the treadmill software.

[14] = system: I/R mice retina; experiment: retinal ischemia/reperfusion injury model in mouse eyes; assay type: in vivo
Description: The function of retinal ganglion cells (RGCs) can be non-invasively assessed by pattern electroretinogram (PERG) a technique that emphasizes the activity of inner retina neurons. The amplitude of PERG reflects the degree of apparent damage by RGCs. A murine model of ocular stroke was employed to evaluate the function of […] upon administration of SA-10. After a single intravitreal injection of 100 μM of SA-10 to the left eye of mice (C57BL/6J, 12 weeks old, female) having undergone ischemia reperfusion (I/R) procedure, standard PERG was analyzed 1 week post I/R to determine whether compound SA-10 could prevent PERG deficits (FIGS. 9A & 9B). […] However, there was a significant decrease in PBS treated mice compared to PERG amplitudes from sham mice (14.8±1.4 μV, n=5). As expected, compound SA-10 injection increased PERG amplitude compared to PBS-treated I/R mice (21±1.4 μV, n=5, p<0.05 vs. I/R+PBS treated mice; values signify mean±SEM).
Ischemic/reperfusion injury model in mouse eyes. Mice (C57Bl6/J, 12 weeks, n=5) were anesthetized and the ischemic/reperfusion (I/R) injury was performed on left eye after it was numbed with proparacaine followed by intravitreal injection of 2 μl of […] of compound SA-10 formulated in PBS (I/R+SA-10 group) or only 2 μl PBS to left eye (I/R+PBS group) at days 0. At day 7, pattern ERG was performed with the JORVEC System. SD-OCT was done to measure the change in overall thickness of retina layers and flash ERG was done to measure the function of bipolar cells (b-wave) as well as photoreceptor cells (a-wave) after 28 days. Pattern ERG was performed to measure the function of RGCs. Right eye was served as contralateral control.

[15] = HUVEC, H2O2 induced oxidative stress

SMILES | AUCt=0 to t=3h [1] | effective range of concentration to protect ECs [2] | DEX induced PAI-1 [3] | cell proliferation [4] | concentration providing cytoprotection [5] | level of NOS [6] | eNOS activity [6] | TII induced ROS production [7] | activation of microglia by the compound itself [7] | cytoprotective activity [2, 15] | ROS scavenging activity in DCFDA assay [8] | TII induced nitric oxide (nitrite) production [9] | cytoprotective activity [5] | EC migration [10] | EC migration (FIG. 6) [10] | TII induced cell death (LDH release) [11] | angiogenesis and new tube formation [12] | angiogenesis and new tube formation (FIG. 5) [12] | also measured
O=c1cc(-c2ccccc2)oc2cc(O)c(O)c(O)c12 [Baicalein, baicalein] | 1944 | – | – | – | – | – | – | – | – | – | – | – | – | – | – | – | – | – | –
CC1(C)CC([n+]2cc(N)on2)CC(C)(C)N1O [SA-2, reference compound] | 3338 | up to 1 μM | didn't show such activity | didn't show such trend | 16 µM | increased the level of NOS significantly | induced eNOS signals | – | – | – | – | – | – | – | – | – | – | – | doses showing cytoprotective activity [2, 15]: decreased as the dose increased
Nc1c[n+](C2CCSCC2)no1 [SA-9] | 3402 | – | – | dose dependent increase in cell proliferation | 8 µM | increased the level of NOS significantly | increase in eNOS activity | decrease | did not activate | potent cytoprotective activity | scavenged ROS | decrease | superior cytoprotective activity | induce EC migration | induce EC migration | decrease the cell death | induce angiogenesis and new tube formation | induce angiogenesis and new tube formation | cytotoxicity ([4]; different concentrations): not toxic to neural cells
Nc1c[n+](C2CCS(=O)(=O)CC2)no1 [SA-10] | – | up to 100 μM | showed inhibition; also recorded: decreased DEX induced increase in PAI-I level | – | – | – | induced eNOS signals | decrease | did not activate | potent cytoprotective activity | didn't show any significant ROS scavenging activity | decrease | cytoprotective activity | induce EC migration; also recorded: performed comparably to SA-2 | induce EC migration | decrease the cell death | induce angiogenesis and new tube formation; also recorded: significantly induced tube formation | induce angiogenesis and new tube formation | EC protection, longer protection study ([2]; 2-day stress with 400 μM H2O2): protected over the course of 2-day stress; blood perfusion indexes ([13]; 0.125 mg/kg drug, IM, ischemic versus normal limb): performed better than sham and blank vehicle at the beginning; endurance run ([13]; 0.125 mg/kg drug, IM, treadmill distance until exhaustion): performed better than sham and blank vehicle at the beginning; recovery in treadmill experiment ([13]; IM injection, day 0 and day 7, vs. sham and VEGF): good recovery effects; new blood vessel formation and blood circulation ([13]; mouse leg after artery occlusion, assessed by treadmill): increase new blood vessel formation and blood circulation; PERG amplitude ([14]; 1 week post I/R, single intravitreal injection 100 μM, mean±SEM, n=5): 21±1.4 μV; retinal layer thickness by SD-OCT ([14]; after I/R): maintenance of retinal layer thickness; ERG amplitude (a- and b-wave) damage after I/R ([14]; flash ERG 28 days post-I/R): significantly reversed these damages; protein nitrosylation in retina ([14]; intravitreal dosing of 2%): doesn't cause any significant protein nitrosylation; retina protection against ischemic stroke and reperfusion ([14]; single intravitreal injection): protective to retina
[NH-]c1c[n+](N2CCOCC2)no1 [SIN-1, reference compound] | 1856 | – | – | – | – | – | – | did not | – | – | – | – | – | – | – | – | – | – | –
